Reference: patent US10946094B2, “Adenoassociated viral mediated persistant anti-VEGF therapy for ovarian cancer” (Cornell University, priority 2015, dated 2021)

Assays:
[1] = test system: A2780 ovarian cancer cells; test: Survival of A2780 tumor-bearing mice pretreated with chemotherapeutic, followed by AAV vector; type: in vivo, Balb/c nude mice; conditions: for Efficacy as single agents at the doses and schedules used: survival of A2780 tumor-bearing mice
Description: Xenografts of human ovarian cancer cells were established by administering 5 million A2780 ovarian cancer cells intraperitoneally in 6 to 8 week old female Balb/c nude mice. Survival was analyzed in the mice which were either left untreated, treated with the chemotherapeutic topotecan in combination with an AAV vector, or treated with the chemotherapeutic paclitaxel in combination with an AAV vector. To establish the topotecan-AAVrh. 10BevMab combination treatment model, 2 weeks after injection of the A2780 ovarian cancer cells, the mice were treated with topotecan at 0.625 mg/kg body weight/day, 5 times/week for 3 weeks (see, Delord et al., Ann. Oncol., 16: 1889-1897 (2005)). […] To establish the paclitaxel-AAVrh.10BevMab combination treatment model, 1 week after injection of the A2780 ovarian cancer cells, the mice were treated with paclitaxel at 20 mg/kg body weight, once/week for 2 weeks (see, Vassileva et al., Mol Cancer Ther., 7: 630-637 (2008)).

recurrent ovarian cancer = conditions: single agent, patients with recurrent ovarian cancer; cited from earlier work

Q: Which “Efficacy as single agents at the doses and schedules used” value [1] does the source give for `CC[C@@]1(O)C(=O)OCc2c1cc1n(c2=O)Cc2cc3c(CN(C)C)c(O)ccc3nc2-1` [Topotecan, topotecan] here?
A: efficacious

Q: And the Median survival ([1]; topotecan model: 0.625 mg/kg/day, 5 times/week for 3 weeks from week 2, vector at week 5)?
A: 50 days

Q: Which Median survival ([1]; paclitaxel model: 20 mg/kg once/week for 2 weeks from week 1, vector at week 3) does the source give for `CC(=O)O[C@H]1C(=O)[C@@]2(C)[C@H]([C@H](OC(=O)c3ccccc3)[C@]3(O)C[C@H](OC(=O)[C@H](O)[C@@H](NC(=O)c4ccccc4)c4ccccc4)C(C)=C1C3(C)C)[C@]1(OC(C)=O)CO[C@@H]1C[C@@H]2O` [paclitaxel] here?
A: 31 days

Q: What about the “Efficacy as single agents at the doses and schedules used” value [1] of the same compound?
A: efficacious

Q: For Bevacizumab, which Responsive rate (recurrent ovarian cancer) is on record?
A: 21%
